From ChEMBL document CHEMBL1201862, “PubChem BioAssay data set” (2004) come the findings set out here.

Among the test systems are CCRF-CEM; EKVX; K562; LOX IMVI; MDA-MB-231; MDA-MB-435; MDA-N; Malme-3M; OVCAR-5; PC-3; RPMI-8226; SF-539; SK-MEL-5; SNB-19; SW-620; U-251; A549; HCC 2998; NCI-H522; HOP-92.
Holding throughout (experiment): NCI-60 cell line screen, 48 h

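The compound was tested at five concentrations on cells cultured in 96-well plates, with a 48-hour exposure period. GI50: concentration for 50% inhibition of growth.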 Active and inactive are the calls of the source. No stated cut-off is given here; in the data, active = GI50 up to about 1.1 µM and inactive = higher.

Consider `CC(=O)c1ccc2c(c1)oc(=O)n2CCN1CCCCC1`, for which the GI50 is 26.3 µM (inactive) with CCRF-CEM; > 100 µM (inactive) with EKVX; > 100 µM (inactive) in the experiment on K562; > 100 µM (inactive) with LOX IMVI; > 100 µM (inactive) with MDA-MB-231; > 100 µM (inactive) in the experiment with MDA-MB-435. Moreover, the GI50 in the experiment on MDA-N is > 100 µM (inactive); in the experiment with Malme-3M, 2.79 µM (inactive); with OVCAR-5, > 100 µM (inactive); in the experiment on PC-3, > 100 µM (inactive); in the experiment on RPMI-8226 it was > 100 µM (inactive); in the experiment on SF-539, > 100 µM (inactive). Besides, the GI50 in the experiment with SK-MEL-5, in the experiment with SNB-19, with SW-620 and with U-251 was > 100 µM (inactive) throughout.
For `C=CCSC(C)=O`, the GI50 with A549, with CCRF-CEM, in the experiment on EKVX, with HCC 2998, with K562 and in the experiment on LOX IMVI was > 100 µM (inactive) throughout. The GI50 in the experiment on MDA-MB-231 was > 100 µM (inactive); with MDA-MB-435 it was > 100 µM (inactive); with MDA-N, > 100 µM (inactive); in the experiment with Malme-3M, > 100 µM (inactive); in the experiment on NCI-H522, 98.9 µM (inactive); in the experiment with OVCAR-5, > 100 µM (inactive). Besides, the GI50 in the experiment on PC-3, in the experiment on RPMI-8226, in the experiment on SF-539, in the experiment with SK-MEL-5, in the experiment with SNB-19 and in the experiment on SW-620 was > 100 µM (inactive) in each case. In addition, in the experiment with U-251, the GI50 was > 100 µM (inactive).
Regarding `COc1ccc(/C=C/c2ccnc3ccccc23)c(OC)c1`, the GI50 was > 10 µM (inactive) in the experiment on A549; 4.97 µM (inactive) with CCRF-CEM; 5.19 µM (inactive) in the experiment on EKVX; 6.82 µM (inactive) in the experiment on HCC 2998; 3.54 µM (inactive) with K562; 7.71 µM (inactive) in the experiment with LOX IMVI. The GI50 in the experiment on MDA-MB-231 is 4.17 µM (inactive); with MDA-MB-435, 2.36 µM (inactive); with MDA-N, 3.41 µM (inactive); in the experiment with Malme-3M it was 5.69 µM (inactive); in the experiment on NCI-H522 it was 6.62 µM (inactive); with OVCAR-5, > 10 µM (inactive). For the same molecule, the GI50 is 8.38 µM (inactive) in the experiment with PC-3; 7.33 µM (inactive) in the experiment with RPMI-8226; 4.34 µM (inactive) in the experiment with SF-539; 3.66 µM (inactive) in the experiment on SK-MEL-5; > 10 µM (inactive) in the experiment on SNB-19; 5.94 µM (inactive) in the experiment on SW-620. Also, the GI50 with U-251 is 9.02 µM (inactive).
For `O=C1C2=C(SCCS2)C(=O)c2c(Sc3ccc(Cl)cc3)c(Sc3ccc(Cl)cc3)c(Sc3ccc(Cl)cc3)c(Sc3ccc(Cl)cc3)c21`, the GI50 in the experiment with A549 was > 100 µM (inactive); with CCRF-CEM it was 11.6 µM (inactive); with EKVX, > 100 µM (inactive); with HCC 2998, > 100 µM (inactive); in the experiment on MDA-MB-231, 32 µM (inactive); in the experiment with MDA-MB-435, > 100 µM (inactive). Also, the GI50 with MDA-N is > 100 µM (inactive); in the experiment on Malme-3M, 20.2 µM (inactive); with OVCAR-5, > 100 µM (inactive); in the experiment with PC-3 it was > 100 µM (inactive); in the experiment on RPMI-8226, 51.3 µM (inactive); in the experiment with SK-MEL-5, > 100 µM (inactive). Besides, the GI50 in the experiment with SNB-19 is 25.2 µM (inactive); in the experiment with SW-620, > 100 µM (inactive); in the experiment on U-251, 57.8 µM (inactive).
`COc1ccc(Nc2nc(N)c(C(=O)c3ccccc3)s2)cc1`: the GI50 in the experiment on A549 is 0.152 µM (active); in the experiment with CCRF-CEM it was 0.0226 µM (active); in the experiment on EKVX, 0.142 µM (active); in the experiment with HCC 2998, 0.227 µM (active); with HOP-92, 33.6 µM (inactive); with K562 it was 0.0102 µM (active). Also, the GI50 in the experiment on LOX IMVI was 0.0524 µM (active); in the experiment on MDA-MB-435, < 0.01 µM (active); in the experiment on MDA-N, < 0.01 µM (active); in the experiment with Malme-3M it was 45.2 µM (inactive); in the experiment with NCI-H522 it was 0.0148 µM (active); in the experiment with OVCAR-5, 19.5 µM (inactive). The GI50 with PC-3 is 0.0396 µM (active); with RPMI-8226, 0.0681 µM (active); with SF-539, 0.0129 µM (active); in the experiment with SK-MEL-5 it was 0.0689 µM (active); in the experiment on SNB-19, 0.037 µM (active); with SW-620, 0.0197 µM (active). For the same molecule, the GI50 in the experiment on U-251 was 0.0302 µM (active).
Take `COc1ccc(C2C3=CONC3CC3CCCCC32)cc1` (stereo unspecified): the GI50 with A549 is 33.8 µM (inactive); with CCRF-CEM it was 42.1 µM (inactive); with HCC 2998, 18.5 µM (inactive); in the experiment on K562 it was 39.4 µM (inactive); with LOX IMVI it was 69.7 µM (inactive); with MDA-MB-435, 47.9 µM (inactive). Further, the GI50 was > 10 µM (inactive) in the experiment on MDA-N; 43.3 µM (inactive) in the experiment with Malme-3M; 29.6 µM (inactive) in the experiment on NCI-H522; > 100 µM (inactive) with OVCAR-5; 30.6 µM (inactive) with PC-3; 28.8 µM (inactive) in the experiment on RPMI-8226. The GI50 in the experiment on SK-MEL-5 is 50.8 µM (inactive); in the experiment with SNB-19 it was 92.7 µM (inactive); in the experiment on SW-620, > 100 µM (inactive); in the experiment on U-251, 46 µM (inactive).
For the molecule `Cc1c(C#N)c(N)[nH]c(=S)c1C#N`, the GI50 with A549, with CCRF-CEM, in the experiment with EKVX, in the experiment on HCC 2998, in the experiment with K562 and in the experiment with LOX IMVI was > 100 µM (inactive) in each case. Also, the GI50 in the experiment with MDA-MB-231, in the experiment on MDA-N, with Malme-3M, in the experiment with NCI-H522, with OVCAR-5 and with PC-3 was > 100 µM (inactive) in each case. For the same molecule, the GI50 with RPMI-8226, with SF-539, in the experiment on SK-MEL-5, with SNB-19, in the experiment with SW-620 and in the experiment on U-251 was > 100 µM (inactive) each time.
Consider `CCN1CN(c2ccccc2)C2(CCN(CCCSc3ccc(F)cc3)CC2)C1=O`, for which the GI50 with A549 was 6.12 µM (inactive); in the experiment with CCRF-CEM, 4.24 µM (inactive); in the experiment with EKVX, 4.89 µM (inactive); in the experiment on K562, 12.9 µM (inactive); in the experiment with LOX IMVI it was 14.3 µM (inactive); in the experiment on MDA-MB-231 it was 12.7 µM (inactive). Also, the GI50 in the experiment with MDA-MB-435 is 12.8 µM (inactive); in the experiment on MDA-N, 11.7 µM (inactive); in the experiment with Malme-3M it was 19.9 µM (inactive); in the experiment with NCI-H522 it was 15 µM (inactive); in the experiment on OVCAR-5 it was 5.19 µM (inactive); in the experiment with PC-3 it was 11.8 µM (inactive). Moreover, the GI50 with RPMI-8226 was 10.1 µM (inactive); in the experiment on SF-539 it was 9.4 µM (inactive); in the experiment on SK-MEL-5, 2.82 µM (inactive); with SNB-19, 10.1 µM (inactive); in the experiment on SW-620 it was 7.29 µM (inactive); with U-251, > 10 µM (inactive).
For the molecule `CN(C)c1ccc(/C=C2\C[C@H]3[C@@H]4CC=C5C[C@@H](O)CC[C@]5(C)[C@H]4CC[C@]3(C)[C@H]2O)cc1`, the GI50 is 13.6 µM (inactive) with A549; 4.81 µM (inactive) in the experiment on EKVX; 28 µM (inactive) with K562; 8.51 µM (inactive) in the experiment with LOX IMVI; 16.2 µM (inactive) in the experiment on MDA-MB-231; 20.2 µM (inactive) in the experiment on MDA-N. The GI50 in the experiment with Malme-3M was 19.9 µM (inactive); in the experiment with OVCAR-5, 17.3 µM (inactive); in the experiment with PC-3, 13.1 µM (inactive); in the experiment on RPMI-8226 it was 29.9 µM (inactive); in the experiment with SF-539 it was 10.2 µM (inactive); with SK-MEL-5 it was 17.6 µM (inactive). The GI50 was 15.7 µM (inactive) with SNB-19, 24.8 µM (inactive) with SW-620 and 8.2 µM (inactive) in the experiment on U-251.
With `CN[C@@H]1C[C@H]2O[C@@](C)([C@@H]1OC)n1c3ccccc3c3c4c(c5c6ccccc6n2c5c31)C(=O)N[C@@H]4O`, the GI50 with A549 is 0.0278 µM (active); in the experiment with CCRF-CEM, 0.0165 µM (active); with EKVX, 0.0183 µM (active); in the experiment with HCC 2998, 0.149 µM (active); in the experiment on K562 it was 0.31 µM (active); with LOX IMVI, 0.0331 µM (active). Besides, the GI50 with MDA-MB-231 is 0.0137 µM (active); with MDA-MB-435 it was 0.0845 µM (active); with MDA-N it was 0.0574 µM (active); in the experiment on Malme-3M it was 0.0175 µM (active); in the experiment with NCI-H522 it was 0.0484 µM (active); with OVCAR-5 it was 0.015 µM (active). In addition, the GI50 was 0.00904 µM (active) in the experiment with PC-3; 0.658 µM (active) in the experiment with RPMI-8226; < 0.0151 µM (active) in the experiment on SF-539; 0.12 µM (active) in the experiment with SNB-19; 0.0764 µM (active) in the experiment on SW-620; 0.0456 µM (active) with U-251.
As to `CN1CN(c2ccccc2)C2(CCN(CC(C)(c3ccc(F)cc3)C3OCCCO3)CC2)C1=O` (stereo unspecified), the GI50 in the experiment on A549 was 25.9 µM (inactive); with CCRF-CEM it was 13 µM (inactive); in the experiment on EKVX it was 16.7 µM (inactive); with K562, 13.2 µM (inactive); in the experiment with LOX IMVI it was 17.5 µM (inactive); in the experiment with MDA-MB-231, 24.2 µM (inactive). Also, the GI50 with MDA-MB-435 is 10.9 µM (inactive); in the experiment with MDA-N, 17.3 µM (inactive); in the experiment with Malme-3M, 15.6 µM (inactive); in the experiment on NCI-H522 it was 16.8 µM (inactive); in the experiment with OVCAR-5 it was 8.69 µM (inactive); in the experiment with PC-3, 17.4 µM (inactive). In addition, the GI50 was 10.2 µM (inactive) with RPMI-8226; 13.2 µM (inactive) with SF-539; 15.7 µM (inactive) in the experiment with SK-MEL-5; 17.3 µM (inactive) in the experiment on SNB-19; 20.6 µM (inactive) in the experiment on SW-620; 12.8 µM (inactive) in the experiment on U-251.
